Experimental data as given in patent publication US11648289B2, “Antibacterial method” (priority 2016, dated 2023).
No end group written: not given here.

How the values were obtained:
E. faecium 130409015079* = conditions: E. faecium 130409015079, isolated from blood, Vancomycin-resistant
Experimental: (§1) Bacterial strains, growth conditions, bacteriocins and antimicrobial assays. All the strains (see below) used in minimal inhibitory concentration (MIC) assays (Varahan et al., 2014, M. Bio. 5:e01726-01714) were grown in BHI medium (Oxoid) at 30° C. without shaking. A collection of E. faecium strains isolated from blood in patients from different European hospitals was received from Department of Medical Microbiology, University Medical Center Utrecht, the Netherlands. […] Synthesized peptides were solubilized to concentrations of 10.0-0.1 mg/ml in 0.1% (vol/vol) trifluoroacetic acid and stored at −20° C. until use. […] Bacteriocin activity was determined by microtiter plate assay as previously described (Holo et al., 1991, J. Bacteriol., 173:3879-3887). The MIC was defined as the minimal bacteriocin concentration that inhibited the growth of the indicator strain by at least 50% (50% of the turbidity of the control culture without bacteriocin) in 200 μl culture. CD Spectroscopy Circular dichroism (CD) spectra were recorded using a Jasco J-810 spectropolarimeter (Jasco International Co) calibrated with D-camphor-10-sulfonate (Icatayama Chemical). All measurements were made using a quartz cuvette (Sterna) with 0.1 cm path length. Samples were scanned five times with a scanning rate of 50 nm/min with a bandwidth of 0.5 nm and response time of 1 s over the wavelength range 190-250 nm. Spectra were recorded at different (30 and 50%) trifluoroethanol (TFE) (Aldridge) concentrations at 25° C. The approximate α-helical content of the protein was estimated from its molar ellipticity at 222 nm (Scholtz et al., 1991, Biopolymers 31:1463-1470). NMR Spectroscopy The experiments were run on a sample containing 1.0 mM EntK1, 50% D3-TFE (99.5% D) (Aldrich), Milli-Q water and 0.2 mM of 4,4-dimethyl-4-silapentane-1-sulfonic acid (DSS) (Larodan). 2D NOESY (Jeener et al., 1979, J. Magn. Reson., 71:4546-4553), 2D TOCSY (Braunschweiler and Ernst, 1983, J. Magn. Reson., 53:521-528), 2D DQCOSY, ^15N-HSQC (Davis et al., 1992, J. Magn. Reson., 98:207-216) and ^13C-HSQC (Hurd, 1991, J. Magn. Reson., 91:648-653) were recorded. The data was acquired on a 600 MHz Bruker Avance II spectrometer with four channels and a 5 mm TCI cryoprobe (Bruker Biospin). NOESY spectra with mixing times between 120 ms and 300 ms were obtained for both samples. TOCSY mixing times of 15-80 ms were used. The experiments were run at 298.15 K. Spectra were processed using the Topspin program (Bruker Biospin). 4,4-dimethyl-4-silapentane-1-sulfonic acid (DSS) was used as a chemical shift standard, and ^15N and ^13C data were referenced using frequency ratios as described in (Wishart et al., 1995, J. Biomol. NMR., 6:135-140). For visualization, assignment and integration of the spectra the computer program CARA was used (Keller, 2004, The Computer Aided Resonance Assignment Tutorial. CANTINA Verlag, Goldau, Switzerland). The spectra were assigned using standard methods. Dihedral angle restraints were obtained from the chemical shift values using the program TALOS-N(Shen and Bax, 2013, J. Biomol. NMR, 56:227-241). Nuclear Overhauser effect (NOE) distance restraints were calculated from the peak volumes in the NOESY spectra with NOESY mixing time of 200 ms. All structure calculations were made using the structure calculation program CYANA 2.1 (Guntert et al., 1997, J. Mol. Biol., 273:283-298; Herrmann et al., 2002, J. Mol. Biol., 319:209-227). The annealing macro in CYANA calculated 100 structures. The 20 structures with the lowest energy were kept and analyzed further. The root-mean-square deviation (RMSD) was calculated and the structures were visualized using MolMol (Koradi et al., 1996, J. Mol. Graph., 14:51-55, 29-32). Generation of bacteriocin resistant mutants of E. faecalis and E. faecium.

S. epidermidis LMGT 3026 = test system: S. epidermidis LMGT 3026
Experimental: as §1

E. faecium LMGT 3313 = test system: E. faecium LMGT 3313
Experimental: as §1

E. faecium A11 EFH2/00 = conditions: E. faecium A11 EFH2/00, isolated from blood
Experimental: as §1

E. faecium P032 inv-4 = conditions: E. faecium P032 inv-4, isolated from blood
Experimental: as §1

E. faecium UW6920 = conditions: E. faecium UW6920, isolated from blood
Experimental: as §1

E. faecium AH137 = conditions: E. faecium AH137, isolated from blood
Experimental: as §1

E. faecium 14-597963* = conditions: E. faecium 14-597963, isolated from blood, Vancomycin-resistant
Experimental: as §1

L. garvieae LMGT 2217 = test system: L. garvieae LMGT 2217
Experimental: as §1

E. faecium P040 INV-25 = conditions: E. faecium P040 INV-25, isolated from blood
Experimental: as §1

[1] = test system: Lactococcus garvieae LMGT 1546
Experimental: as §1

[2] = test system: E. faecium LMGT2787 resistant mutants; conditions: only HR type found
Experimental: as §1

E. faecium 602589 = conditions: E. faecium 602589, isolated from blood
Experimental: as §1

S. pneumoniae ms3 = conditions: ms3, rseP H22>A, induced with ComS (2 μM)
Experimental: as §1

B. cereus LMGT 2731 = test system: B. cereus LMGT 2731
Experimental: as §1

E. faecium PO1402593* = conditions: E. faecium PO1402593, isolated from blood, Vancomycin-resistant
Experimental: as §1

E. hirae LMGT 3236 = test system: E. hirae LMGT 3236
Experimental: as §1

E. faecium LMGT 3104 = test system: E. faecium LMGT 3104
Experimental: as §1

E. faecium 928379 A* = conditions: isolated from blood, Vancomycin-resistant
Experimental: as §1

Sequence	MIC 50 (E. faecium 130409015079*)	MIC 50 (S. epidermidis LMGT 3026)	MIC 50 (E. faecium LMGT 3313)	MIC 50 (E. faecium A11 EFH2/00)	MIC 50 (E. faecium P032 inv-4)	MIC 50 (E. faecium UW6920)	MIC 50 (E. faecium AH137)	MIC 50 (E. faecium 14-597963*)	MIC 50 (L. garvieae LMGT 2217)	MIC 50 (E. faecium P040 INV-25)	MIC 50 [1]	resistance of HR type mutants compared to the WT [2]	MIC 50 (E. faecium 602589)	MIC (S. pneumoniae ms3)	MIC 50 (B. cereus LMGT 2731)	MIC 50 (E. faecium PO1402593*)	MIC 50 (E. hirae LMGT 3236)	MIC 50 (E. faecium LMGT 3104)	MIC 50 (E. faecium 928379 A*)
MKFKFNPTGTIVKKLTQYEIAWFKNKHGYYPWEIPRC [EntK1]	0.02 µM	>5.5 µM	0.085 µM	0.045 µM	0.02 µM	0.045 µM	0.01 µM	0.045 µM	0.34 µM	0.02 µM	1.37 µM	500 times	0.045 µM	>5.5 µM	>5.5 µM	0.02 µM	0.045 µM	0.01 µM	0.02 µM
MLAKIKAMIKKFPNPYTLAAKLTTYEINWYKQQYGRYPWERPVA [EntEJ97]	0.037 µM	>4.7 µM	0.145 µM	0.075 µM	0.037 µM	0.145 µM	0.075 µM	0.145 µM	0.295 µM	0.075 µM	0.295 µM	500 times	0.145 µM	0.3 µM	>4.7 µM	0.075 µM	0.075 µM	0.145 µM	0.075 µM
MKTILRFVAGYDIASHKKKTGGYPWERGKA [LsbB, reference compound]		>7 µM	>7 µM						>7 µM		>7 µM			>7 µM	>7 µM		>7 µM	>7 µM	
